Drawing on patent US9682938B2, “Pyrazolone derivatives as nitroxyl donors” (Cardioxyl Pharmaceuticals, Inc., priority 2014, dated 2017), this text covers half-life for 27 compounds.

Common to all, as to format: in vitro ADME
Data set [1] can be described thus: In vitro plasma stability, dog plasma. Conditions: male, pH 7.4, 5 μM, 37° C., sampling 0-360 minutes, read-out: T1/2 Dog. On the procedure: (§1) Certain compounds from Table 1 were tested for their stability in plasma. The assay system comprised plasma from rat, dog or human (at least 3 donors, male, pooled) at pH 7.4, and (ii) an anticoagulant (sodium heparin or sodium citrate). Each test compound (5 μM) was incubated in plasma at 37° C. on a THERMOMIXER® with shaking. Three samples (n=3) were taken at each of seven sampling time points: 0, 10, 30, 60, 90, 180 and 360 minutes. The samples were immediately combined with 3 volumes (i.e., 3 times the volume of plasma) of acetonitrile containing 1% formic acid and an internal standard to terminate the reaction. AB SCIEX API 3000 LC-MS/MS analysis of the test compounds was performed without a standard curve. Plasma half-lives (T1/2) of the test compounds were determined from graphs of the percent remaining values using the peak area response ratio.

Data set [2] is described as follows: In vitro plasma stability, human plasma. Conditions: male, pH 7.4, 5 μM, 37° C., sampling 0-360 minutes, read-out: T1/2 Human. As for the experimental part:
as §1

Data set [3] in a line: In vitro plasma stability, rat plasma. Conditions: male, pH 7.4, 5 μM, 37° C., sampling 0-360 minutes, read-out: T1/2 Rat. On the procedure:
as §1

For the compound `CN1N=C(c2ccc(F)cc2)C(C)(NO)C1=O` (stereo not drawn) [Compound 5, 5-(4-fluorophenyl)-4-(hydroxyamino)-2,4-dimethyl-2,4-dihydro-3H-pyrazol-3-one], the half-life at 5 μM in data set [1] was found to be 172 min; in data set [2] it was 108 min; in data set [3] it was 78 min.

Regarding `Cc1cc(C)cc(C2=NN(C)C(=O)C2(C)NO)c1` (stereo not drawn) [Compound 7, 5-(3,5-dimethylphenyl)-4-(hydroxyamino)-2,4-dimethyl-2,4-dihydro-3H-pyrazol-3-one], the half-life at 5 μM in data set [1] was 117 min; in data set [2], 104 min; in data set [3], 34 min.

For `CN1N=C(c2cc(Cl)cc(Cl)c2)C(C)(NO)C1=O` (stereo not drawn) [Compound 9, 5-(3,5-dichlorophenyl)-4-(hydroxyamino)-2,4-dimethyl-2,4-dihydro-3H-pyrazol-3-one], the figures for the half-life at 5 μM in data set [1], in data set [2] and in data set [3] were 59 min, 43 min and 17 min, respectively.

As to `CO/N=C(\C)C1(NO)C(=O)N(C)N=C1C(C)(C)C` (stereo not drawn) [Compound 10, 5-(tert-butyl)-4-(hydroxyamino)-4-(1-(methoxyimino)ethyl)-2-methyl-2,4-dihydro-3H-pyrazol-3-one], the half-life at 5 μM stood at 40 min in data set [1], 12 min in data set [2] and 21 min in data set [3].

Take `CN1N=C(c2ccc([S+](C)[O-])cc2)C(C)(NO)C1=O` (stereo not drawn) [Compound 11, 4-(hydroxyamino)-2,4-dimethyl-5-(4-(methylsulfinyl)phenyl)-2,4-dihydro-3H-pyrazol-3-one]: the half-life at 5 μM in data set [1] was 39 min; in data set [2], 65 min; in data set [3], 88 min.

In the case of `CN1N=C(c2ccc(F)cc2Cl)C(C)(NO)C1=O` (stereo not drawn) [Compound 12, 5-(2-chloro-4-fluorophenyl)-4-(hydroxyamino)-2,4-dimethyl-2,4-dihydro-3H-pyrazol-3-one], the half-life at 5 μM is 28 min in data set [1], 18 min in data set [2] and 20 min in data set [3].

`CO/N=C(\C)C1(NO)C(=O)N(c2ccccc2)N=C1C(C)(C)C` (stereo not drawn) [Compound 18, 5-(tert-butyl)-4-(hydroxyamino)-4-(1-(methoxyimino)ethyl)-2-phenyl-2,4-dihydro-3H-pyrazol-3-one]: the half-life at 5 μM in data set [1] was 13 min; in data set [2] it was 26 min; in data set [3] it was 17 min.

Turning to `COc1ccc(C2=NN(C)C(=O)C2(C)NO)cc1F` (stereo not drawn) [Compound 19, 5-(3-fluoro-4-methoxyphenyl)-4-(hydroxyamino)-2,4-dimethyl-2,4-dihydro-3H-pyrazol-3-one], the results for the half-life at 5 μM in data set [1], in data set [2] and in data set [3] were 95 min, 163 min and 90 min, respectively.

As for `CN1N=C(c2ccccc2[S+](C)[O-])C(C)(NO)C1=O` (stereo not drawn) [Compound 21, 4-(hydroxyamino)-2,4-dimethyl-5-(2-(methylsulfinyl)phenyl)-2,4-dihydro-3H-pyrazol-3-one], the values for the half-life at 5 μM in data set [1], in data set [2] and in data set [3] were 24 min, 41 min and 36 min, respectively.

For `CN1N=C(c2cccc(C(F)(F)F)c2)C(C)(NO)C1=O` (stereo not drawn) [Compound 22, 4-(hydroxyamino)-2,4-dimethyl-5-(3-(trifluoromethyl)phenyl)-2,4-dihydro-3H-pyrazol-3-one], the half-life at 5 μM was 114 min in data set [1], 55 min in data set [2] and 44 min in data set [3].

`CC(C)(C)C1=NN(c2ccccc2)C(=O)C1(C)NO` (stereo not drawn) [Compound 23, 5-(tert-butyl)-4-(hydroxyamino)-4-methyl-2-phenyl-2,4-dihydro-3H-pyrazol-3-one]: the values for the half-life at 5 μM in data set [1], in data set [2] and in data set [3] were 120 min, 104 min and 136 min, respectively.

For the compound `CC1=NN(c2ccccc2)C(=O)C1(NO)c1ccccc1` (stereo not drawn) [Compound 24, 4-(hydroxyamino)-5-methyl-2,4-diphenyl-2,4-dihydro-3H-pyrazol-3-one], the results for the half-life at 5 μM in data set [1], in data set [2] and in data set [3] were 16 min, 11 min and 10 min, respectively.

Regarding `CC(C)N1N=C(c2ccccc2F)C(C)(NO)C1=O` (stereo not drawn) [Compound 26, 5-(2-fluorophenyl)-4-(hydroxyamino)-2-iso-propyl-4-methyl-2,4-dihydro-3H-pyrazol-3-one], the half-life at 5 μM is 65 min in data set [1], 45 min in data set [2] and 42 min in data set [3].

For the compound `CC1=NN(C)C(=O)C1(NO)c1ccc(F)cc1` (stereo not drawn) [Compound 27, 4-(4-fluorophenyl)-4-(hydroxyamino)-2,5-dimethyl-2,4-dihydro-3H-pyrazol-3-one], the values for the half-life at 5 μM in data set [1], in data set [2] and in data set [3] were 23 min, 21 min and 19 min, respectively.

In the case of `CC1=NN(C(C)C)C(=O)C1(NO)c1ccccc1` (stereo not drawn) [Compound 30, 4-(hydroxyamino)-1-isopropyl-3-methyl-4-phenyl-1H-pyrazol-5(4H)-one], the half-life at 5 μM in data set [1] is 84 min; in data set [2], 22 min; in data set [3], 32 min.

Take `CCC1(NO)C(=O)N(C)N=C1c1ccccc1F` (stereo not drawn) [Compound 31, 4-ethyl-5-(2-fluorophenyl)-4-(hydroxyamino)-2-methyl-2,4-dihydro-3H-pyrazol-3-one]: the half-life at 5 μM in data set [1] stood at 201 min; in data set [2] it was 59 min; in data set [3], 66 min.

As to `CC(C)N1N=C(c2ccc(S(C)(=O)=O)cc2)C(C)(NO)C1=O` (stereo not drawn) [Compound 32, 4-(hydroxyamino)-2-iso-propyl-4-methyl-5-(4-(methylsulfonyl)phenyl)-2,4-dihydro-3H-pyrazol-3-one], the half-life at 5 μM in data set [1] is 148 min; in data set [2] it was 100 min; in data set [3] it was 64 min.

In the case of `CC1=NN(c2ccc(S(C)(=O)=O)cc2)C(=O)C1(C)NO` (stereo not drawn) [Compound 33, 4-(hydroxyamino)-4,5-dimethyl-2-(4-(methylsulfonyl)phenyl)-2,4-dihydro-3H-pyrazol-3-one], the figures for the half-life at 5 μM in data set [1], in data set [2] and in data set [3] were 100 min, 130 min and 175 min, respectively.

With `CN1N=C(c2ccc([S+]([O-])C(F)(F)F)cc2)C(C)(NO)C1=O` (stereo not drawn) [Compound 35, 4-(hydroxyamino)-2,4-dimethyl-5-(4-((trifluoromethyl)sulfinyl)phenyl)-2,4-dihydro-3H-pyrazol-3-one], the half-life at 5 μM in data set [1] came out at 44 min; in data set [2], 76 min; in data set [3] it was 79 min.

Turning to `CSc1ccc(C2=NN(C)C(=O)C2(C)NO)cc1` (stereo not drawn) [Compound 36, 4-(hydroxyamino)-2,4-dimethyl-5-(4-(methylthio)phenyl)-2,4-dihydro-3H-pyrazol-3-one], the half-life at 5 μM in data set [1] turned out to be 133 min; in data set [2] it was 152 min; in data set [3], 300 min.

For `CC1=NN(C)C(=O)C1(NO)c1ccc(S(C)(=O)=O)cc1` (stereo not drawn) [Compound 37, 4-(hydroxyamino)-2,5-dimethyl-4-(4-(methylsulfonyl)phenyl)-2,4-dihydro-3H-pyrazol-3-one], the half-life at 5 μM in data set [1] amounted to 3 min; in data set [2], 8 min; in data set [3], 5 min.

As to `CN1N=C(c2ccc([S+](C)[O-])c(F)c2)C(C)(NO)C1=O` (stereo not drawn) [Compound 38, 5-(3-fluoro-4-(methylsulfinyl)phenyl)-4-(hydroxyamino)-2,4-dimethyl-2,4-dihydro-3H-pyrazol-3-one], the half-life at 5 μM in data set [1] worked out at 33 min; in data set [2], 46 min; in data set [3], 54 min.

Regarding `Cc1cc(C2=NN(C)C(=O)C2(C)NO)ccc1[S+](C)[O-]` (stereo not drawn) [Compound 39, 4-(hydroxyamino)-2,4-dimethyl-5-(3-methyl-4-(methylsulfinyl)phenyl)-2,4-dihydro-3H-pyrazol-3-one], the figures for the half-life at 5 μM in data set [1], in data set [2] and in data set [3] were 59 min, 60 min and 134 min, respectively.

Turning to `Cc1cc(C2=NN(C)C(=O)C2(C)NO)ccc1S(C)(=O)=O` (stereo not drawn) [Compound 41, 4-(hydroxyamino)-2,4-dimethyl-5-(3-methyl-4-(methylsulfonyl)phenyl)-2,4-dihydro-3H-pyrazol-3-one], the figures for the half-life at 5 μM in data set [1], in data set [2] and in data set [3] were 38 min, 54 min and 64 min, respectively.

For the compound `CO/N=C(\C)C1(NO)C(=O)N(C)N=C1c1ccc(S(C)(=O)=O)cc1` (stereo not drawn) [Compound 42, 4-(hydroxyamino)-4-(1-(methoxyimino)ethyl)-2-methyl-5-(4-(methylsulfonyl)phenyl)-2,4-dihydro-3H-pyrazol-3-one], the half-life at 5 μM in data set [1] was 5 min; in data set [2] it was 6 min; in data set [3] it was 9 min.

For `COc1ccc(C2(NO)C(=O)N(C)N=C2C)cc1` (stereo not drawn) [Compound 43, 4-(hydroxyamino)-4-(4-methoxyphenyl)-1,3-dimethyl-1H-pyrazol-5(4H)-one], the half-life at 5 μM was 23 min in data set [1], 35 min in data set [2] and 25 min in data set [3].

Regarding `CN1N=C(c2cc(F)c(S(C)(=O)=O)c(F)c2)C(C)(NO)C1=O` (stereo not drawn) [Compound 45, 5-(3,5-difluoro-4-(methylsulfonyl)phenyl)-4-(hydroxyamino)-2,4-dimethyl-2,4-dihydro-3H-pyrazol-3-one], the half-life at 5 μM was found to be 31 min in data set [1], 40 min in data set [2] and 25 min in data set [3].
